Among the data in US20130197205A1, “CHITOSAN COVALENTLY LINKED WITH SMALL MOLECULE INTEGRIN ANTAGONIST FOR TARGETED DELIVERY” (Hoffmann-La Roche Inc., priority 2012, published 2013) are IC50 values, retold here.

Read-outs that look alike come from different tables or passages of the source.

For this assay, the target named is T1, αvβ3 (Homo sapiens, UniProt P05106+P06756, DEL719-788).
T1 construct: purchased R & D 3050-AV
Kind of assay: Human αVβ3 solid phase assay (fibrinogen binding). The note with it: αvβ3-coated plates, fibrinogen as ligand. The protocol:
Buffer used was Buffer A: 20 mM Tris, 150 mM NaCl, 1 mM CaCl2, 1 mM MgCl2, pH 7.4. […] After blocking, plates were washed 5 times with 200 uL of Buffer B (Buffer A+1 mM MnCl2). […] Plates were shaken for 2 minutes, and then incubated for 2 hours for 37° C. […] After the addition of 1st antibody and after the addition of 2nd antibody, plates were shaken for 2 minutes and incubated for 60 minutes at 37° C., and then washed 5 times with 200 uL of Buffer B correspondingly. […] Plates were shaken at RT for 5-8 min, and the development of a green color was gradually showing. After being added 100 uL/well Stop Buffer (1.0 M Phosphoric Acid ([…])), plates were read on Envision at Absorbance mode 450 nm.

T1 sequence (P06756 31-992 limits assumed, stated change not applied): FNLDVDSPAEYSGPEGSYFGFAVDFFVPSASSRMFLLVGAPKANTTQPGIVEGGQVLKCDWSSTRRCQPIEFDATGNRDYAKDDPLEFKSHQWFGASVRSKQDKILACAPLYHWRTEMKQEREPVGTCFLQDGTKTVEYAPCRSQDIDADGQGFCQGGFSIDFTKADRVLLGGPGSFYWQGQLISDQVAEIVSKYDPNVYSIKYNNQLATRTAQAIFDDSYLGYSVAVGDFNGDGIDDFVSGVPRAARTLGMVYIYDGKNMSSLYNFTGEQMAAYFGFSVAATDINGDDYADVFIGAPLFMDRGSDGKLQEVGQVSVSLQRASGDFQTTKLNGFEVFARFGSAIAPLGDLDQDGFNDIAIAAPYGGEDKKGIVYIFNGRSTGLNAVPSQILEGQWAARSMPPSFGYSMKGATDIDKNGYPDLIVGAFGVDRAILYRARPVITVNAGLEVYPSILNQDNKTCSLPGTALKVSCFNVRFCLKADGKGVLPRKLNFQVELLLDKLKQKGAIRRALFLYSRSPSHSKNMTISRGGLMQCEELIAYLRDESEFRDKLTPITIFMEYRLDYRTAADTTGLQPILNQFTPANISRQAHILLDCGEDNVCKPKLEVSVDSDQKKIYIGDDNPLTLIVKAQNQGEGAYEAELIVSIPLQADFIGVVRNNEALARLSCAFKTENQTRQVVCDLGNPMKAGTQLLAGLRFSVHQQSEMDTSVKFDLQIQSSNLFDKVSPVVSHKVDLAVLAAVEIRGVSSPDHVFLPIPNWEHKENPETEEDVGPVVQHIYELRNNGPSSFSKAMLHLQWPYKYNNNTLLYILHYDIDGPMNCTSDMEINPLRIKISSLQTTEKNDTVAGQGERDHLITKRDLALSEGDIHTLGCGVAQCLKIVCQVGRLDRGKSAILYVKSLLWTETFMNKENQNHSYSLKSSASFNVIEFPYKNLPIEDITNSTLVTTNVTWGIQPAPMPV
T1 sequence (P05106 27-718 limits assumed, stated change not applied): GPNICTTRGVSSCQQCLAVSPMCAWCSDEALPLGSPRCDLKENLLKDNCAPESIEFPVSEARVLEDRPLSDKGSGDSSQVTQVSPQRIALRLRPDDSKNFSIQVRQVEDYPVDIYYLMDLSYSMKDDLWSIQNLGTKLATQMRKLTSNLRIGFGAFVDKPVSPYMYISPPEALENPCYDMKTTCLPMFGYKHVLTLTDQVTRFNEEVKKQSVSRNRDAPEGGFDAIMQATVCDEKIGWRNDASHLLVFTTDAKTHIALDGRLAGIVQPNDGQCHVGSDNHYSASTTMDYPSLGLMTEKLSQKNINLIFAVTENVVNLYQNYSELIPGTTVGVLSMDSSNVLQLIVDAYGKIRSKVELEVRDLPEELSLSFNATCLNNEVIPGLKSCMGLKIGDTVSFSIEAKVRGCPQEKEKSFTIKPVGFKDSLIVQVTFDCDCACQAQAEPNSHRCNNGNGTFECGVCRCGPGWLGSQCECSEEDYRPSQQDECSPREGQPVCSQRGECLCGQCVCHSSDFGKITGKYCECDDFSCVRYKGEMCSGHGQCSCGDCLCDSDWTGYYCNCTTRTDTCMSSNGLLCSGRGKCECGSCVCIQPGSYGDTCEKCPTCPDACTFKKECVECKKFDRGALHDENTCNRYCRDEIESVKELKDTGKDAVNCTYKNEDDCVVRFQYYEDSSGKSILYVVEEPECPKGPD

By IC50 is commonly meant the concentration that gives 50% inhibition. As to `COc1ccc(NC(=O)[C@H](CC(=O)O)NC(=O)CNC(=O)c2cccc(N=C(N)N)c2)cc1` [compound 28], the concentration for half-maximal inhibition (IC50) was 2 nM (read-out: Binding IC50) and approximately 2 nM (read-out: IC50 of control compound).
